According to patent US9125913B2, “Bcl-2-selective apoptosis-inducing agents for the treatment of cancer and immune diseases” (AbbVie Inc., priority 2008, dated 2015):

Test system: GST-Bcl-2
Test: TR-FRET binding assay, Bcl-2
Conditions: TR-FRET Ki values
Experimental: Tb-anti-GST antibody was purchased from Invitrogen (Catalog No. PV4216).
Representative compounds were serially diluted in dimethyl sulfoxide (DMSO) starting at 50 μM (2× starting concentration; 10% DMSO) and 10 μL were transferred into a 384-well plate.
The samples were then mixed on a shaker for 1 minute and incubated for an additional 3 hours at room temperature. For each assay, the probe/antibody and protein/probe/antibody were included on each assay plate as negative and positive controls, respectively. Fluorescence was measured on the Envision (Perkin Elmer) using a 340/35 nm excitation filter and 520/525 (F-Bak peptide) and 495/510 nm (Tb-labeled anti-Histidine antibody) emission filters.
The inhibition constant (Ki) is the dissociation constant of an enzyme-inhibitor complex or a protein/small molecule complex, wherein the small molecule is inhibiting binding of one protein to another protein or peptide. […] Inhibition constants were determined using Wang's equation (Wang Z-X., An Exact Mathematical Expression For Describing Competitive Binding Of Two Different Ligands To A Protein Molecule. FEBS Lett. 1995, 360:111-4).

| Compound | Binding selectivity ratio (Bcl-XL Ki/Bcl-2 Ki) |
| --- | --- |
| CC1(C)CCC(CN2CCN(c3ccc(C(=O)NS(=O)(=O)c4ccc(NC5CCN(C6CCOCC6)CC5)c([N+](=O)[O-])c4)c(Oc4ccc5[nH]ccc5c4)c3)CC2CO)=C(c2ccc(Cl)cc2)C1 (centres unmarked) [EXAMPLE 219, 4-[4-{[2-(4-chlorophenyl)-4,4-dimethylcyclohex-1-en-1-yl]methyl}-3-(hydroxymethyl)piperazin-1-yl]-2-(1H-indol-5-yloxy)-N-({3-nitro-4-[(1-tetrahydro-2H-pyran-4-ylpiperidin-4-yl)amino]phenyl}sulfonyl)benzamide] | 126.8 |
| CC1(C)CCC(CN2CCN(c3ccc(C(=O)NS(=O)(=O)c4ccc(NC5CCN(CCO)CC5)c([N+](=O)[O-])c4)c(Oc4cccc5[nH]ccc45)c3)CC2)=C(c2ccc(Cl)cc2)C1 [EXAMPLE 191, 4-(4-{[2-(4-chlorophenyl)-4,4-dimethylcyclohex-1-en-1-yl]methyl}piperazin-1-yl)-N-[(4-{[1-(2-hydroxyethyl)piperidin-4-yl]amino}-3-nitrophenyl)sulfonyl]-2-(1H-indol-4-yloxy)benzamide] | 125.2 |
| CC1(C)CCC(CN2CCN(c3ccc(C(=O)NS(=O)(=O)c4ccc(NCC5(C)COC5)c([N+](=O)[O-])c4)c(Oc4ccc5[nH]ccc5c4)c3)CC2)=C(c2ccc(Cl)cc2)C1 [EXAMPLE 264, 4-(4-{[2-(4-chlorophenyl)-4,4-dimethylcyclohex-1-en-1-yl]methyl}piperazin-1-yl)-2-(1H-indol-5-yloxy)-N-[(4-{[(3-methyloxetan-3-yl)methyl]amino}-3-nitrophenyl)sulfonyl]benzamide] | >2808.4 |
| CC1(C)CCC(CN2CCN(c3ccc(C(=O)NS(=O)(=O)c4ccc(S(=O)(=O)N5CCOCC5)cc4)c(Oc4ccc5[nH]ccc5c4)c3)CC2)=C(c2ccc(Cl)cc2)C1 [EXAMPLE 361, 4-(4-{[2-(4-chlorophenyl)-4,4-dimethylcyclohex-1-en-1-yl]methyl}piperazin-1-yl)-2-(1H-indol-5-yloxy)-N-{[4-(morpholin-4-ylsulfonyl)phenyl]sulfonyl}benzamide] | >92.6 |
| CC1(C)CCC(CN2CCN(c3ccc(C(=O)NS(=O)(=O)c4ccc(NC5(CO)CCOCC5)c([N+](=O)[O-])c4)c(Oc4ccc5[nH]ccc5c4)c3)CC2)=C(c2ccc(Cl)cc2)C1 [EXAMPLE 240, 4-(4-{[2-(4-chlorophenyl)-4,4-dimethylcyclohex-1-en-1-yl]methyl}piperazin-1-yl)-N-[(4-{[4-(hydroxymethyl)tetrahydro-2H-pyran-4-yl]amino}-3-nitrophenyl)sulfonyl]-2-(1H-indol-5-yloxy)benzamide] | >795.4 |
| CC1(C)CCC(CN2CCN(c3ccc(C(=O)NS(=O)(=O)c4cnc(OCC5CCOCC5)c(C#N)c4)c(Oc4cccc5[nH]ccc45)c3)CC2)=C(c2ccc(Cl)cc2)C1 [EXAMPLE 386, 4-(4-{[2-(4-chlorophenyl)-4,4-dimethylcyclohex-1-en-1-yl]methyl}piperazin-1-yl)-N-{[5-cyano-6-(tetrahydro-2H-pyran-4-ylmethoxy)pyridin-3-yl]sulfonyl}-2-(1H-indol-4-yloxy)benzamide] | 494.5 |
| O=C(NS(=O)(=O)c1ccc(NC2CCN(S(=O)(=O)c3cccc4cccnc34)CC2)c([N+](=O)[O-])c1)c1ccc(N2CCN(Cc3ccccc3-c3ccc(Cl)cc3)CC2)cc1Oc1ccccc1 [Example 158, 4-{4-[(4′-chloro-1,1′-biphenyl-2-yl)methyl]piperazin-1-yl}-N-[(3-nitro-4-{[1-(quinolin-8-ylsulfonyl)piperidin-4-yl]amino}phenyl)sulfonyl]-2-phenoxybenzamide] | >10.2 |
| CC1(C)CCC(CN2CCN(c3ccc(C(=O)NS(=O)(=O)c4cnc(OCC5CCOCC5)c(C#N)c4)c(Oc4ccc5[nH]ccc5c4)c3)CC2)=C(c2ccc(Cl)cc2)C1 [EXAMPLE 333, 4-(4-{[2-(4-chlorophenyl)-4,4-dimethylcyclohex-1-en-1-yl]methyl}piperazin-1-yl)-N-{[5-cyano-6-(tetrahydro-2H-pyran-4-ylmethoxy)pyridin-3-yl]sulfonyl}-2-(1H-indol-5-yloxy)benzamide] | >7415.7 |
